Experiments:
[1] = target: T1, Cytochrome P450 1A1 (Homo sapiens, UniProt P04798); test: Inhibition of human CYP1A1 expressed in Escherichia coli assessed as changes in ethoxyresorufin O-deethylation activity after 3 mins by spectrofluorometer analysis; format: ADME
T1 sequence (P04798 whole entry): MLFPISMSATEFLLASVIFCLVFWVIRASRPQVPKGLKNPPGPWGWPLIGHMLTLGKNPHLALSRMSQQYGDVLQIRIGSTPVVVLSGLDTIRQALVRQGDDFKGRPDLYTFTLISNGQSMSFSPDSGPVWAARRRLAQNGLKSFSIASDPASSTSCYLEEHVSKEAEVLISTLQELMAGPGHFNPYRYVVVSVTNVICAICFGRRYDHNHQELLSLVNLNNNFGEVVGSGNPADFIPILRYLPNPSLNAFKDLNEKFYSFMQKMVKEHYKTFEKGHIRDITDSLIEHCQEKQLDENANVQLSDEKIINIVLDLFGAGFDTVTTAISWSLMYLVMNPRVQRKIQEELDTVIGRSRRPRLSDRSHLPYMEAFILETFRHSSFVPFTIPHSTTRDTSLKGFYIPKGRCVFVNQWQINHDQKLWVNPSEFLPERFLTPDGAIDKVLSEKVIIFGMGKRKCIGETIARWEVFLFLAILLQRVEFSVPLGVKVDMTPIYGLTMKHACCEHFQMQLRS

[2] = target: T2, Cytochrome P450 1B1 (Homo sapiens, UniProt Q16678); test: Inhibition of human CYP1B1 expressed in Escherichia coli assessed as changes in ethoxyresorufin O-deethylation activity after 3 mins by spectrofluorometer analysis
T2 sequence (Q16678 whole entry): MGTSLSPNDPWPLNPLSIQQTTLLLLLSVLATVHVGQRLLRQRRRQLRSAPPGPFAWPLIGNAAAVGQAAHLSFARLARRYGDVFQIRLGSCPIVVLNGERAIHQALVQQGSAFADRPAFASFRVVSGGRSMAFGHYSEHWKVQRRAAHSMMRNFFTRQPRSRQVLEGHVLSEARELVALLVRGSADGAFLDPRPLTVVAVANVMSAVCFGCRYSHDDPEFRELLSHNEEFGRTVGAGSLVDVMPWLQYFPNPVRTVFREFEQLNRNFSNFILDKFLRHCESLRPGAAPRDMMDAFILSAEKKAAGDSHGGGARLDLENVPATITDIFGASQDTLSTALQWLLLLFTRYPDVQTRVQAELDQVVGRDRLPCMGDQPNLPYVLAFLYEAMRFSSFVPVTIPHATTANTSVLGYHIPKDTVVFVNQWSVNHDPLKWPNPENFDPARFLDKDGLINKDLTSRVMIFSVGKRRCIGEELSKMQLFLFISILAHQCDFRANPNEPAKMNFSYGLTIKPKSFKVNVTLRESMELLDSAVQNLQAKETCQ

[3] = organism: Homo sapiens; test: Selectivity ratio of IC50 for human CYP1A2 to IC50 for human CYP1B1
[4] = organism: Homo sapiens; test: Selectivity ratio of IC50 for human CYP1A1 to IC50 for human CYP1B1
[5] = target: T3, Cytochrome P450 1A2 (Homo sapiens, UniProt P05177); test: Inhibition of human CYP1A2 expressed in Escherichia coli assessed as changes in ethoxyresorufin O-deethylation activity after 3 mins by spectrofluorometer analysis; format: ADME
T3 sequence (P05177 whole entry): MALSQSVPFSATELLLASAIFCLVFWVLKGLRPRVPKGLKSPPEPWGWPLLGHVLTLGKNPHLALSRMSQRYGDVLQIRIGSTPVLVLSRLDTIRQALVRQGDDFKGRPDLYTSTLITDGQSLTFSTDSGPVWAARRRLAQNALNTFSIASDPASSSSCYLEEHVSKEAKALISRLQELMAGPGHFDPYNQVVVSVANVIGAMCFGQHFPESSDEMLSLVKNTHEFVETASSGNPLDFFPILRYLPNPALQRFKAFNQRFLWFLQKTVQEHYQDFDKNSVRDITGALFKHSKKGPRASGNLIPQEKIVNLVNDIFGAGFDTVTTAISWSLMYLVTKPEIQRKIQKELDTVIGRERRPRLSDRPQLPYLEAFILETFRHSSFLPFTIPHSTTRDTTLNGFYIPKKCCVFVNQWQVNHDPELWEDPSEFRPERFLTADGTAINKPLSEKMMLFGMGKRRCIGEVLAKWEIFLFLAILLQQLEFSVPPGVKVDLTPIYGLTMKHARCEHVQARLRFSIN

[6] = target: T1, Cytochrome P450 1A1; test: Inhibition of CYP1A1 (unknown origin); format: ADME
[7] = target: T2, Cytochrome P450 1B1; test: Inhibition of CYP1B1 (unknown origin)

SMILES	IC50 [1]	IC50 [2]	Ratio IC50 [3]	Ratio IC50 [4]	IC50 [5]	Ki [6]	Ki [7]
COc1ccc(/C=C/c2ccc(OC)cc2OC)cc1	0.666 µM	0.0575 µM	18	12	1.06 µM	–	–
COc1ccc(/C=C/c2ccccc2)c(OC)c1	0.493 µM	0.025 µM	13	20	0.326 µM	–	–
COc1ccc(/C=C/c2cc(OC)c(OC)cc2OC)c(OC)c1	0.0784 µM	0.00546 µM	43	14	0.236 µM	–	–
COc1ccc(OC)c(/C=C/c2ccc(OC)cc2OC)c1	0.35 µM	0.00351 µM	86	100	0.302 µM	–	–
COc1cc(O)cc(/C=C/c2ccc(O)cc2)c1	–	–	–	–	–	0.12 µM	0.9 µM
COc1ccc(/C=C/c2ccc(OC)cc2OC)c(OC)c1	0.222 µM	0.00881 µM	23	25	0.204 µM	–	–
COc1ccc(/C=C/c2cccc(OC)c2OC)c(OC)c1	0.192 µM	0.0603 µM	4.1	3.2	0.247 µM	–	–
COc1ccc(/C=C/c2cc(O)cc(O)c2)cc1 [RESVERATROL 4'-METHYL ETHER]	–	–	–	–	–	0.16 µM	2.1 µM
COc1ccc(/C=C/c2ccc(OC)c(OC)c2)c(OC)c1	0.19 µM	0.0418 µM	8.1	4.6	0.337 µM	–	–
COc1ccc(/C=C/c2cc(OC)c(OC)c(OC)c2)c(OC)c1	0.301 µM	0.071 µM	66	4.2	4.69 µM	–	–
COc1cccc(/C=C/c2ccc(OC)cc2OC)c1	0.0982 µM	0.0152 µM	59	6.5	0.903 µM	–	–
COc1ccc(/C=C/c2c(OC)cccc2OC)c(OC)c1	0.35 µM	0.00177 µM	95	194	0.17 µM	–	–
COc1cc(/C=C/c2ccc(O)cc2)cc(OC)c1 [PTEROSTILBENE]	–	–	–	–	–	0.57 µM	0.9 µM
COc1ccc(/C=C/c2c(OC)cc(OC)cc2OC)c(OC)c1	0.148 µM	0.00493 µM	38	30	0.188 µM	–	–
COc1ccc(/C=C/c2ccccc2OC)c(OC)c1	0.336 µM	0.0155 µM	51	22	0.792 µM	–	–
COc1ccc(/C=C/c2c(OC)ccc(OC)c2OC)c(OC)c1	0.42 µM	0.0033 µM	526	127	1.74 µM	–	–

From ChEMBL document CHEMBL3217568, “trans-Stilbenoids: potent and selective inhibitors for human cytochrome P450 1B1” (Medchemcomm, 2011)
